PMC11011246 (Cell, 2024)

Key:
[1] = First-in-human phase I trial, pharmacokinetics; type: in vivo; conditions: for Tmax: male, plasma, oral, 50 mg, 50 mg single dose
[2] = system: NrasG12V Cdkn2aARF-/- HCC cells; assay: HCC cell proliferation and trypan blue cell death; type: cell-based, murine; conditions: HRX215 10 μM vs DMSO, up to 72 h
C57BL/6 WT mice [3] = assay: Short-term CCl4 liver damage model; type: in vivo, mouse; conditions: 0.4, 2, 10 mg/kg p.o., 48 h after CCl4, vs vehicle
C57BL/6 WT mice [4] = assay: 4-week treatment/toxicity study in wildtype mice; type: in vivo, mouse; conditions: 10 mg/kg, vs vehicle
healthy male volunteers = assay: First-in-human phase I trial, safety and tolerability; type: in vivo
[5] = Pharmacokinetics of HRX215 in mice; type: in vivo, C57BL/6 wildtype mice; conditions: 30 mg/kg p.o.
[6] = 4-week GLP toxicity study; conditions: both, Wistar Han, rat, in vivo, po
C57BL/6 WT mice [7] = assay: CCl4 liver-damage; conditions: 10 mg/kg p.o., CCl4 3 weeks, 48 h after PH
[8] = system: NrasG12V Trp53-/- HCC cells; assay: HCC cell proliferation and trypan blue cell death; type: cell-based, murine; conditions: HRX215 10 μM vs DMSO, up to 72 h
C57BL/6 WT mice [9] = assay: Long-term GAN-NASH HCC model; type: in vivo, mouse
[10] = IND-enabling GLP safety pharmacology; type: in vivo, rats, dogs; conditions: GLP studies
C57BL/6 WT mice [11] = assay: Short-term GAN-NASH model; type: in vivo, mouse; conditions: 10 mg/kg daily, 12 weeks, vs vehicle
C57BL/6 WT mice [12] = assay: Partial hepatectomy in wildtype mice; conditions: 48 h after partial hepatectomy
pigs = assay: 85% hepatectomy; type: in vivo, pig
[13] = 4-week GLP toxicity study; conditions: both, beagle, dog, in vivo, po

SMILES: CCCS(=O)(=O)Nc1c(F)ccc(C(=O)c2n[nH]c3ncc(-c4ccncc4)cc23)c1F [HRX215]
- exposure (Cmax and AUC) versus dose ([1]; ascending doses): increased proportionally with ascending doses
- Tmax ([1]; fasting): 1.2 h
- Tmax ([1]; fed): 3.9 h
- cell proliferation [2]: significantly reduced cell proliferation
- hepatocyte death (TUNEL) (C57BL/6 WT mice [3]): significantly reduced hepatocyte death
- complete blood counts (C57BL/6 WT mice [4]; 4 weeks): No significant changes were detected
- untargeted metabolomics of plasma and liver (C57BL/6 WT mice [4]): no safety relevant changes were detected
- mild to moderate adverse effects, percentage (healthy male volunteers; HRX215 groups, n = 36): 36.1%
- number of mild to moderate adverse effects (subjects/group) (healthy male volunteers; HRX215 groups, n = 36): 13/36
- severe or serious adverse events (healthy male volunteers; single and multiple doses 5-500 mg): no severe or serious adverse events were reported
- complete blood counts (healthy male volunteers; vs placebo): no significant differences
- t(1/2), elimination half-life [5]: 3.4 to 3.9 h
- NOAEL at 4 weeks [6]: 300 mg/kg/day
- hepatocyte proliferation upon partial hepatectomy in fibrotic livers (C57BL/6 WT mice [7]): enhance hepatocyte proliferation
- cell proliferation [8]: significantly reduced cell proliferation
- hepatic inflammation and hepatocyte ballooning (C57BL/6 WT mice [9]; 10 mg/kg daily, 12 weeks): no reduction of hepatic inflammation and hepatocyte ballooning
- hepatocyte proliferation (Ki67) (C57BL/6 WT mice [9]; 10 mg/kg daily, 12 weeks): slightly increased hepatocyte proliferation
- liver fibrosis (C57BL/6 WT mice [9]; 10 mg/kg daily, 12 weeks): found reduced in HRX215 treated livers, but results missed statistical significance
- overall hepatic lipid content (C57BL/6 WT mice [9]; 10 mg/kg daily, 12 weeks): significant reduction of the overall hepatic lipid content
- tumor size (C57BL/6 WT mice [9]; 10 mg/kg daily, 12 weeks): tendency toward a reduction of tumor size
- number of tumor nodules per liver (C57BL/6 WT mice [9]; 10 mg/kg daily, 12 weeks, vs baseline and vehicle): did not result in a higher number of tumor nodules per liver
- numbers of dysplastic premalignant lesions (C57BL/6 WT mice [9]; 10 mg/kg daily, 12 weeks, vs vehicle): did not reveal significant differences
- NAS score development (C57BL/6 WT mice [9]; non-tumor bearing liver parts): more animals with an improved NAS score and less animals with a worsened NAS score
- effect on the cardiovascular, neurological, or respiratory system [10]: absence of any effect
- numbers of senescent cells in NASH livers (C57BL/6 WT mice [11]): found no differences
- proliferating hepatocytes (Ki67) (C57BL/6 WT mice [12]; 0.4 mg/kg p.o.): 15.38%
- proliferating hepatocytes (Ki67) (C57BL/6 WT mice [12]; 2 mg/kg p.o.): 15.15%
- proliferating hepatocytes (Ki67) (C57BL/6 WT mice [12]; 10 mg/kg p.o.): 26.3%
- aspartate aminotransferase (pigs; pigs, 85% hepatectomy): only transiently increased after surgery
- bilirubin plasma levels (pigs; pigs, 85% hepatectomy): only a transient rise with a subsequent drop
- intracranial pressure (ICP) after surgery (pigs; pigs, 85% hepatectomy): did not show an increase in ICP values
- plasma ammonia (pigs; pigs, 85% hepatectomy): prevented an increase of plasma ammonium
- animals with normal behavior that survived (pigs; post-surgery treatment group (start 12 h after surgery)): 5 out of 6
- animals with normal behavior that survived (pigs; pre-surgery treatment group (start 12 h before surgery)): 4 out of 6
- NOAEL at 4 weeks [13]: 250 mg/kg/day
